Measurements taken from PubChem BioAssay (NCI).
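The concentration for 50% growth inhibition is given as GI50. TGI is the concentration that stops growth completely.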

Key:
Assay in all cases: NCI-60 cell line screen, 384-well format; in the data active means GI50 below about 0.43 µM; inactive means the rest
[1] = tested on: 786-0 renal
[2] = tested on: A498 renal
[3] = tested on: A549 NSCLC
[4] = tested on: ACHN renal
[5] = tested on: BT-549 breast
[6] = tested on: CAKI-1 renal
[7] = tested on: CCRF-CEM leukemia
[8] = tested on: COLO 205 colon
[9] = tested on: DU-145 prostate
[10] = tested on: EKVX NSCLC
[11] = tested on: HCC-2998 colon
[12] = tested on: HCT-116 colon
[13] = tested on: HCT-15 colon
[14] = tested on: HL-60(TB) leukemia
[15] = tested on: HOP-62 NSCLC
[16] = tested on: HOP-92 NSCLC
[17] = tested on: HS 578T breast
[18] = tested on: HT29 colon
[19] = tested on: IGROV1 ovarian
[20] = tested on: K-562 leukemia
[21] = tested on: KM12 colon
[22] = tested on: LOX IMVI melanoma
[23] = tested on: M14 melanoma
[24] = tested on: MALME-3M melanoma
[25] = tested on: MCF7 breast
[26] = tested on: MDA-MB-231 breast
[27] = tested on: MDA-MB-435 melanoma
[28] = tested on: MDA-MB-468 breast
[29] = tested on: MOLT-4 leukemia
[30] = tested on: NCI-H226 lung
[31] = tested on: NCI-H23 lung
[32] = tested on: NCI-H322M lung
[33] = tested on: NCI-H460 NSCLC
[34] = tested on: NCI/ADR-RES ovarian
[35] = tested on: OVCAR-3 ovarian
[36] = tested on: OVCAR-4 ovarian
[37] = tested on: OVCAR-5 ovarian
[38] = tested on: OVCAR-8 ovarian
[39] = tested on: PC-3 prostate
[40] = tested on: RXF 393 renal
[41] = tested on: SF-268 CNS
[42] = tested on: SF-295 CNS
[43] = tested on: SF-539 CNS
[44] = tested on: SK-MEL-28 melanoma
[45] = tested on: SK-MEL-5 melanoma
[46] = tested on: SK-OV-3 ovarian
[47] = tested on: SN12C renal
[48] = tested on: SNB-19 CNS
[49] = tested on: SNB-75 CNS
[50] = tested on: TK-10 renal
[51] = tested on: UACC-257 melanoma
[52] = tested on: UO-31 renal

Cn1cc(C2=C(c3cn(C4CCN(Cc5ccccn5)CC4)c4ccccc34)C(=O)NC2=O)c2ccccc21
active: GI50 [7] 0.403 µM | GI50 [27] 0.421 µM | GI50 [28] 0.274 µM | GI50 [33] 0.344 µM | GI50 [45] 0.372 µM
0.593 µM: TGI [28]
7.84 µM: TGI [41]
7.12 µM: TGI [49]
3.36 µM: TGI [35]
> 100 µM: TGI [1] | TGI [3] | TGI [4] | TGI [5] | TGI [6] | TGI [8] | TGI [9] | TGI [10] | TGI [12] | TGI [13] | TGI [15] | TGI [16] | TGI [18] | TGI [19] | TGI [21] | TGI [22] | TGI [25] | TGI [26] | TGI [30] | TGI [31] | TGI [32] | TGI [34] | TGI [36] | TGI [37] | TGI [38] | TGI [39] | TGI [42] | TGI [43] | TGI [44] | TGI [46] | TGI [47] | TGI [48] | TGI [50] | TGI [51] | TGI [52]
12.4 µM: TGI [11]
3.35 µM: TGI [29]
9.21 µM: TGI [23]
7.71 µM: TGI [2] | TGI [24]
5.08 µM: TGI [17]
2.54 µM: TGI [14]
39.4 µM: TGI [27]
1.24 µM: TGI [7]
inactive: GI50 [1] 3.31 µM | GI50 [2] 0.718 µM | GI50 [3] 5.18 µM | GI50 [4] 8.73 µM | GI50 [5] 1.6 µM | GI50 [6] 3.99 µM | GI50 [8] 4.14 µM | GI50 [9] 2.65 µM | GI50 [10] 0.917 µM | GI50 [11] 1.5 µM | GI50 [12] 0.645 µM | GI50 [13] 0.623 µM | GI50 [14] 0.713 µM | GI50 [15] 3.22 µM | GI50 [16] 4.24 µM | GI50 [17] 2.22 µM | GI50 [18] 3.29 µM | GI50 [19] 3.57 µM | GI50 [20] 0.454 µM | GI50 [21] 3.93 µM | GI50 [22] 3.1 µM | GI50 [23] 2.94 µM | GI50 [24] 2.84 µM | GI50 [25] 2.98 µM | GI50 [26] 4.21 µM | GI50 [29] 1.9 µM | GI50 [30] 3.31 µM | GI50 [31] 5.28 µM | GI50 [32] 5.75 µM | GI50 [34] 3.33 µM | GI50 [35] 0.5 µM | GI50 [36] 3.33 µM | GI50 [37] > 100 µM | GI50 [38] 6.7 µM | GI50 [39] 2.98 µM | GI50 [40] 2.06 µM | GI50 [41] 3 µM | GI50 [42] 4.48 µM | GI50 [43] 1.2 µM | GI50 [44] 2.89 µM | GI50 [46] 2.52 µM | GI50 [47] 1.26 µM | GI50 [48] 2.61 µM | GI50 [49] 1.41 µM | GI50 [50] 2.7 µM | GI50 [51] > 100 µM | GI50 [52] 1.11 µM
95.5 µM: TGI [45]
4.85 µM: TGI [40]
84 µM: TGI [33]
1.58 µM: TGI [20]
